Laboratory results reported in ChEMBL document CHEMBL1201862, “PubChem BioAssay data set” (2004).
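The compound was tested at five concentrations on cells cultured in 96-well plates, with a 48-hour exposure period. GI50: concentration for 50% inhibition of growth.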 Calls of active or inactive are those of the source. No stated cut-off is given here; in the data, active = GI50 up to about 1.1 µM and inactive = higher.

How the values were obtained:
Assay in all cases: NCI tumour cell line growth inhibition, 48 h
OVCAR-5 = tested on: OVCAR-5
RXF 393 = tested on: RXF 393
MDA-MB-435 = tested on: MDA-MB-435
OVCAR-8 = tested on: OVCAR-8
NCI-H226 = tested on: NCI-H226
DU-145 = tested on: DU-145
M14 = tested on: M14
SK-MEL-2 = tested on: SK-MEL-2
MOLT-4 = tested on: MOLT-4
BT-549 = tested on: BT-549
NCI/ADR-RES = tested on: NCI/ADR-RES
HOP-92 = tested on: HOP-92
SF-295 = tested on: SF-295
MCF7 = tested on: MCF7
HCT-116 = tested on: HCT-116
IGROV-1 = tested on: IGROV-1
MDA-MB-231 = tested on: MDA-MB-231
RPMI-8226 = tested on: RPMI-8226
UO-31 = tested on: UO-31
Hs-578T = tested on: Hs-578T
U-251 = tested on: U-251
SNB-19 = tested on: SNB-19
ACHN = tested on: ACHN
OVCAR-3 = tested on: OVCAR-3
SK-OV-3 = tested on: SK-OV-3
SNB-75 = tested on: SNB-75
UACC-257 = tested on: UACC-257
PC-3 = tested on: PC-3
HOP-62 = tested on: HOP-62
A549 = tested on: A549
SN12C = tested on: SN12C
EKVX = tested on: EKVX
KM12 = tested on: KM12
UACC-62 = tested on: UACC-62
NCI-H23 = tested on: NCI-H23
SK-MEL-28 = tested on: SK-MEL-28
LOX IMVI = tested on: LOX IMVI
T47D = tested on: T47D
OVCAR-4 = tested on: OVCAR-4
HT-29 = tested on: HT-29
CAKI-1 = tested on: CAKI-1
COLO 205 = tested on: COLO 205
NCI-H460 = tested on: NCI-H460
SW-620 = tested on: SW-620
HCC 2998 = tested on: HCC 2998
SK-MEL-5 = tested on: SK-MEL-5
CCRF-CEM = tested on: CCRF-CEM
TK-10 = tested on: TK-10
K562 = tested on: K562
SF-268 = tested on: SF-268
MDA-N = tested on: MDA-N
SR = tested on: SR
HCT-15 = tested on: HCT-15
Malme-3M = tested on: Malme-3M
SF-539 = tested on: SF-539
HL-60 = tested on: HL-60

Measured: GI50

O=C1CC(=O)N(c2ccccc2)N1/C(=C/c1ccccc1)c1ccccc1
inactive: OVCAR-5 29.2 µM | RXF 393 16.7 µM | MDA-MB-435 18.9 µM | OVCAR-8 19.8 µM | NCI-H226 21.9 µM | DU-145 24.4 µM | M14 19 µM | SK-MEL-2 23.7 µM | MOLT-4 1.58 µM | BT-549 23.6 µM | NCI/ADR-RES 25.5 µM | HOP-92 13.2 µM | SF-295 17.3 µM | MCF7 21 µM | HCT-116 16 µM | IGROV-1 15.8 µM | MDA-MB-231 10.6 µM | RPMI-8226 10.2 µM | UO-31 15.7 µM | Hs-578T 17.3 µM | U-251 14.3 µM | SNB-19 19.6 µM | ACHN 25.8 µM | OVCAR-3 20.3 µM | SK-OV-3 25.6 µM | SNB-75 22 µM | UACC-257 24.8 µM | PC-3 15.7 µM | HOP-62 18.5 µM | A549 26.1 µM | SN12C 20.5 µM | EKVX 37.6 µM | KM12 25.6 µM | UACC-62 16.3 µM | NCI-H23 23.2 µM | SK-MEL-28 12.3 µM | LOX IMVI 1.6 µM | T47D 21.3 µM | OVCAR-4 20.5 µM | HT-29 20 µM | CAKI-1 17.3 µM | COLO 205 19.8 µM | NCI-H460 19.8 µM | SW-620 17.3 µM | HCC 2998 20.1 µM | SK-MEL-5 14.5 µM | TK-10 21.3 µM | K562 1.54 µM | SF-268 16.2 µM | MDA-N 13.6 µM | SR 12.3 µM
active: CCRF-CEM 0.336 µM

CCSc1nc(N)c2c(-c3ccccc3)c3c(nc2n1)CCC3
> 100 µM: HCT-15
inactive: OVCAR-5 9.91 µM | RXF 393 > 100 µM | MDA-MB-435 > 100 µM | OVCAR-8 > 100 µM | Malme-3M > 100 µM | DU-145 > 100 µM | SF-539 6.53 µM | M14 > 100 µM | MOLT-4 > 100 µM | BT-549 > 100 µM | NCI/ADR-RES > 100 µM | SF-295 > 100 µM | MCF7 > 100 µM | HCT-116 > 100 µM | IGROV-1 > 100 µM | MDA-MB-231 > 100 µM | RPMI-8226 > 100 µM | UO-31 2.59 µM | Hs-578T > 100 µM | U-251 > 100 µM | SNB-19 > 100 µM | ACHN > 100 µM | OVCAR-3 > 100 µM | SK-OV-3 > 100 µM | HL-60 > 100 µM | SNB-75 > 100 µM | UACC-257 > 100 µM | PC-3 > 100 µM | HOP-62 > 100 µM | A549 4.56 µM | SN12C > 100 µM | EKVX > 100 µM | KM12 > 100 µM | UACC-62 > 100 µM | NCI-H23 > 100 µM | SK-MEL-28 > 100 µM | LOX IMVI > 100 µM | T47D > 100 µM | OVCAR-4 > 100 µM | CAKI-1 > 100 µM | COLO 205 > 100 µM | NCI-H460 > 100 µM | SW-620 > 100 µM | SK-MEL-5 > 100 µM | CCRF-CEM > 100 µM | TK-10 > 100 µM | K562 > 100 µM | SF-268 > 100 µM | MDA-N > 100 µM | SR > 100 µM
